We go through one molecule from patent publication US8552052B2, “Use of diindolylmethane-related indoles for the treatment and prevention of respiratory syncytial virus associated conditions” (BioResponse, L.L.C., priority 2004, dated 2013).

Data set [1] has as its system RSV infected A549 cells. Nature of the data set: TUNEL assay for visualization of apoptosis in RSV infected A549 cells. The data set is classed as cell-based, human. The conditions noted are these: DIM at 210 and 700 nM; 12, 18, and 24 hours post infection; data not shown. Here is the method: Cell Culture—A549 cells, a tumor cell line with properties of normal airway epithelial cells, were obtained from American Type Culture Collection (ATCC, Manassas, Va.) and incubated at 37° C. in 5% CO2. The cells were cultured in Eagle's minimum essential medium (MEM, Invitrogen) supplemented with 10% fetal bovine serum (HyClone, Logan, Utah) and […] gentamicin. The A549 cells were subcultured by harvesting in 0.12% trypsin no more than 20 times from stock originally designated at pass 70. To minimize effects of exogenous growth factors or cytokines in this system, the supplemented serum concentration was reduced to 0.5% 24 h prior to and during all experiments with RSV infection.
RSV Virus—RSV, strain A2, was obtained from Advanced Biotechnologies Inc. (Columbia, Md.) and was used directly as supplied for all experiments. The viral preparation was tested to have a TCID50 titer of ˜1×10^9 in Hep-2 cells at 7 days. Sterile vials of the RSV preparation were supplied in MEM supplemented with 10% fetal calf serum, stored at −135° C. and rapidly thawed at 37° C. immediately prior to use. […]
Apotosis in RSV infected A549 cells cultured with and without DIM was further studied using the TUNEL assay for visualization of apoptosis. […] To remove unincorporated dUTP, slides were washed three times 15 min each with 2×SSC and three times with PBS, and then viewed in a fluorescence microscope. […]

For data set [2] the following is noted: lung tissue; cited from earlier work.
Data set [3] deals with bRSV. Kind of data set: Experimental bovine Respiratory Syncytial Virus (bRSV) infection in calves. The data set is classed as in vivo, Male Jersey calves. The conditions noted are these: vs vehicle only treated positive control animals.
The conditions of data set [4]: water and lipid; cited from earlier work.
The test system of data set [5] is prostate cancer cell lines. The conditions noted are these: cited from earlier work.
In data set [6] the test system is RSV Long strain. Nature of the data set: Pulmonary histopathology in RSV infected BALB/c mice. The data set is classed as in vivo. The conditions noted are these: DIM administered orally or parenterally. Here is the method: The Following Experimental BALB/c Groups and Treatment Protocol Using DIM were Studied: • 1. RSV infected positive control group, infected with RSV and injected subcutaneously (SC) once daily with DMSO/Phosphate Buffered Saline (PBS) vehicle. • 2. RSV infected, Low dose Parenteral DIM group (15 mg/kg/day), injected SC once daily with DIM suspension • 3. RSV infected, High dose DIM Group (150 mg/kg/day), injected SC once daily with DIM suspension • 4. RSV infected, orally treated DIM group (250 mg/kg/day from absorption enhanced DIM [Example 6.1]), added to powdered feed • 5. Uninfected negative control group, nasally administered vehicle only, and injected subcutaneously (SC) once daily with DMSO/PBS vehicle
Mouse treatment, infection and harvest. […]
To determine viral titer, the lung was homogenized in DMEM supplemented with 2% FBS (2 ml DMEM per 100 mg tissue) in cold. […] Multiple, 4 μm thick sections were stained with haematoxylin & eosin (H&E) and scored for cellular inflammation under light microscopy by two independent researchers. Inflammatory infiltrates were scored by enumerating the layers of inflammatory cells surrounding the vessels and bronchioles. […] A total of about 20 spaces per lung were counted for each animal. […] The concentration of cysteinyl leukotrienes conjugates in the BALF was determined by an ELISA kit following the manufacturer's protocol (R&D Systems, Minneapolis, Minn.). […]

In the case of `c1ccc2c(Cc3c[nH]c4ccccc34)c[nH]c2c1` [DIM, 3,3′-diindolylmethane], the “apoptosis in TUNEL stained photomicrographs” value in data set [1] is recorded as “clearly showed earlier apoptosis”. Further, the tissue distribution result in data set [2] is recorded as “concentrated in lung tissue”. Further, the “evidence of active bRSV infection” value in data set [3] is on record as “less evidence of active bRSV infection”. Besides, the solubility result in data set [4] is listed as “low solubility”. Moreover, in data set [5], the anti-androgen activity result was “anti-androgen activity similar to non-indole antiandrogen drugs”. In addition, in data set [6], the “severity in lung pathology” value is on record as “reduced severity in lung pathology”.
